This note sets out measurements from paper PMC11694556 (Proteins, 2024).

Holding throughout (type): binding
The target in assay [1] is T1, cypin (cytosolic PSD-95 interactor; guanine deaminase) (Rattus norvegicus, UniProt Q9WTT6).
T1 construct: gene Gda
T1 sequence (Q9WTT6 1-454): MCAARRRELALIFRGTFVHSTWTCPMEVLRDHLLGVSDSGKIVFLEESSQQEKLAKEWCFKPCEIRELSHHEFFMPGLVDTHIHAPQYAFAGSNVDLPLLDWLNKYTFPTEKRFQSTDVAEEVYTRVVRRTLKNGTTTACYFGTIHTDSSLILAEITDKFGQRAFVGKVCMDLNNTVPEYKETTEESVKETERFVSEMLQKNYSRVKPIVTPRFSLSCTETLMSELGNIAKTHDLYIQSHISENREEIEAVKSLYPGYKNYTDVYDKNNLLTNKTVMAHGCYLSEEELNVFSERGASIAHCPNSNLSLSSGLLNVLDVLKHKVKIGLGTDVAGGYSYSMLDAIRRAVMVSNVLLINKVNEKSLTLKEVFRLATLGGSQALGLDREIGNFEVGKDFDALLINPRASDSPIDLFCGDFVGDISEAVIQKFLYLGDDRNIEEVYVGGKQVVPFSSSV
Description: intrinsic tryptophan fluorescence quenching (Hill fit); also Amplex Red coupled xanthine oxidase/uricase assay.

The target of assay [2] is T1, cypin (cytosolic PSD-95 interactor; guanine deaminase). The assay is described as follows: intrinsic tryptophan fluorescence quenching; also NADH-coupled deaminase assay (Km […]).
For assay [3] the target is unchanged. The assay is described as follows: intrinsic tryptophan fluorescence quenching; also NADH-coupled assay (Km […]) and LC-MS of deaminated product.

With `Nc1nc2c(ncn2COCCO)c(=O)[nH]1` [acyclovir], in assay [1], the affinity, expressed as Kd, was 227 µM.

The compound `Nc1nc2nc[nH]c2c(=O)[nH]1` [guanine] returned a Kd in assay [2] of 598 nM. The compound `CC(C)[C@H](N)C(=O)OCCOCn1cnc2c(=O)[nH]c(N)nc21` [valacyclovir] gave a Kd in assay [3] of 74.4 µM.
